Experimental data from ChEMBL document CHEMBL1142227, “Structural basis for the high all-trans-retinaldehyde reductase activity of the tumor marker AKR1B10” (Proc Natl Acad Sci U S A, 2007).

Experiments:
[1] = target: Aldo-keto reductase family 1 member B1 (Homo sapiens, UniProt P15121); test: Inhibition of glyceraldehyde reduction activity of human AKR1B1
[2] = target: Aldo-keto reductase family 1 member B10 (Homo sapiens, UniProt O60218); test: Inhibition of retinaldehyde reductase activity of human AKR1B10
Chain of Aldo-keto reductase family 1 member B10 (O60218 whole entry): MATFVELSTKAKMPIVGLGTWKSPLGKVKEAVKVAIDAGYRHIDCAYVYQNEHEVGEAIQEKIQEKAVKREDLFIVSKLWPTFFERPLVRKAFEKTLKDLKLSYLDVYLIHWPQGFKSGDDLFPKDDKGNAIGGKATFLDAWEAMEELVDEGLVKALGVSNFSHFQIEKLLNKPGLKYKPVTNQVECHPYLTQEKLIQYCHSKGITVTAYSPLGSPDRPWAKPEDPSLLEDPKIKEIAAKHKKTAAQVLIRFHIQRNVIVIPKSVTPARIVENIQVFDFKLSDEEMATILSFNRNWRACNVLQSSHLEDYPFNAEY

[3] = target: Aldo-keto reductase family 1 member B1 (Rattus norvegicus, UniProt P07943); test: Inhibition of rat AKR1B4

Compound	IC50 [1]	IC50 [2]	IC50 [3]
O=CC(O)CO (racemic)	10 nM	–	–
COc1ccc2c(C(=S)N(C)CC(=O)O)cccc2c1C(F)(F)F [TOLRESTAT]	–	11.6 nM	1000 nM
